Structures can show the parent of a compound that is named as a salt. Where two headings read alike, the source gives them in different places.
What was measured:
ROCK1 = ROCK1 (Homo sapiens (Human), UniProt Q13464); assay: Z-lyte FRET assay to measure kinase inhibition, ROCK1; format: biochemical; settings: for inhibition at 50 µM: read-out: ROCK1 % inhibition @ 50 μM, 50 μM compound; for inhibition at 100 µM: read-out: ROCK1 % inhibition @ 100 μM, 100 μM compound
ROCK2 = ROCK2 (Homo sapiens (Human), UniProt O75116); assay: Z-lyte FRET assay to measure kinase inhibition, ROCK2; format: biochemical
Sequence of ROCK2 (O75116 whole entry, species assumed): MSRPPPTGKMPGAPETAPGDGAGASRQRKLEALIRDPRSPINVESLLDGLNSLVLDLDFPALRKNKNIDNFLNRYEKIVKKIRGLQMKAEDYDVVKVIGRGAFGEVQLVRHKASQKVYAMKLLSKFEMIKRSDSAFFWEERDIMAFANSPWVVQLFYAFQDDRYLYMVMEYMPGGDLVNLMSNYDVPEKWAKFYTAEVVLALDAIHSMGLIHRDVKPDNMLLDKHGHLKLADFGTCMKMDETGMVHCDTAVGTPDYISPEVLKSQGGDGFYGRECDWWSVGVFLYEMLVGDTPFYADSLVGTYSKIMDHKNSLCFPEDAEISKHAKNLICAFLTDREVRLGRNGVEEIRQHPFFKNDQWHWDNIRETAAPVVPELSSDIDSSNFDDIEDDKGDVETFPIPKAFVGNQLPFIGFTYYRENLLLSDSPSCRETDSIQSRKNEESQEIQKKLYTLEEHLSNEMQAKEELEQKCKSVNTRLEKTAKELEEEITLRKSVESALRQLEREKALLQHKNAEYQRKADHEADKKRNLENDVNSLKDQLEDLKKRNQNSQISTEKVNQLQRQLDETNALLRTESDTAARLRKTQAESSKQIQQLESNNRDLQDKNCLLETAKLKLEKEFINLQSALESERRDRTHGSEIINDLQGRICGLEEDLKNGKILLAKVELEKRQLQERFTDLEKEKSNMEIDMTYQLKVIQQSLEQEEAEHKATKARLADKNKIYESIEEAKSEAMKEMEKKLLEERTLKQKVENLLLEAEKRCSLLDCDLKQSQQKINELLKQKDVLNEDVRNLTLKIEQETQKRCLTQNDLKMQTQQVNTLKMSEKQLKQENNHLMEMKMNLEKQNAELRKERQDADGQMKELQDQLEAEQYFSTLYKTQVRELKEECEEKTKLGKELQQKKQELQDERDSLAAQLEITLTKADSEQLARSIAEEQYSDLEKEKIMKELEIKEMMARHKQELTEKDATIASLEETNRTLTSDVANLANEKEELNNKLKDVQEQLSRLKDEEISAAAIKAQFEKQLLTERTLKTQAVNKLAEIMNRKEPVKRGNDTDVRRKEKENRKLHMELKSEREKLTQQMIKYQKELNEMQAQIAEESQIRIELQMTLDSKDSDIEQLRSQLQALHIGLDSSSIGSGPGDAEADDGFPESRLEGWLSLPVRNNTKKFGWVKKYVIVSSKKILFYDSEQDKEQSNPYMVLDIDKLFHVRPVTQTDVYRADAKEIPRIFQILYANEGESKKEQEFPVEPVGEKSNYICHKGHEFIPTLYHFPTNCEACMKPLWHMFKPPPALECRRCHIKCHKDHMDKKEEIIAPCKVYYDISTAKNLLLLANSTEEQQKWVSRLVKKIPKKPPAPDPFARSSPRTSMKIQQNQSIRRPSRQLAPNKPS

Sequence of ROCK1 (Q13464 whole entry): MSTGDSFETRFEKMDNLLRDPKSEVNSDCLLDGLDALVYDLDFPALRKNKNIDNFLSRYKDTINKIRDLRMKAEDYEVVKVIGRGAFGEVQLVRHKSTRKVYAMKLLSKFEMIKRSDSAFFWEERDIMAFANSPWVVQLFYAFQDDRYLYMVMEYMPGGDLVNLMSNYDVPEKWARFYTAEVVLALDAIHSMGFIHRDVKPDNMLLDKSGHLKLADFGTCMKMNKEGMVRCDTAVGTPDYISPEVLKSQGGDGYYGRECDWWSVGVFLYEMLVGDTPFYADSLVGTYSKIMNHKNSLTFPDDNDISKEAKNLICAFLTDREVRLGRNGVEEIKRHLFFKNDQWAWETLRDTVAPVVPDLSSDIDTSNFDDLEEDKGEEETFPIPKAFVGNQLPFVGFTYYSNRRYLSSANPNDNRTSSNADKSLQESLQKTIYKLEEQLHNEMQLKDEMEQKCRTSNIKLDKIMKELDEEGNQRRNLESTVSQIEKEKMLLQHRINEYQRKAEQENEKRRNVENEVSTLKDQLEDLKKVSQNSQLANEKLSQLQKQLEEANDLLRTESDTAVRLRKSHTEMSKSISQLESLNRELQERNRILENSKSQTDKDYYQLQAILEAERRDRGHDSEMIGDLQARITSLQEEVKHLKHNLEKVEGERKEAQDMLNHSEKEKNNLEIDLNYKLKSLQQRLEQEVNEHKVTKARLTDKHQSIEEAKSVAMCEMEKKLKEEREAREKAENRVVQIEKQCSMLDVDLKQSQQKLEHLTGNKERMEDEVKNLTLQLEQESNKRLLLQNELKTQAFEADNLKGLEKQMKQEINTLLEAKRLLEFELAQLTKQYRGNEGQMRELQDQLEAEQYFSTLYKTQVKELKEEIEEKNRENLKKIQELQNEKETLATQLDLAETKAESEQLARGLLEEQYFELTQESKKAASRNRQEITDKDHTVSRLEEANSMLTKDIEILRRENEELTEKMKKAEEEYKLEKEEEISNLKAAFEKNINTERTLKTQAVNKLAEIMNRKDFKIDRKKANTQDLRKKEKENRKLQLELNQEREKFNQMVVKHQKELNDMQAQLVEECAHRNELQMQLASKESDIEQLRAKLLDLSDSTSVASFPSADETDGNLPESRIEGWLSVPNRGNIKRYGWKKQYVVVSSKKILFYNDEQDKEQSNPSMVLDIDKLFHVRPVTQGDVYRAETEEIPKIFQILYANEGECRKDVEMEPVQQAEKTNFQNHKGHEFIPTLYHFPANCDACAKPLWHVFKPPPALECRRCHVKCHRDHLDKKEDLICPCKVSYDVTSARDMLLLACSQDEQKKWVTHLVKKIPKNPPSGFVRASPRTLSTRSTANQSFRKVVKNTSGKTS

inhibition at 50 µM (ROCK1) [%] | IC50 (ROCK1; read-out: ROCK1 IC50) [µM] | SMILES | further results
85 ± 4 | 6.6 ± 0.5 | Nc1nccc(N2CCc3ccccc32)n1 | IC50 (ROCK2): 3.4 ± 0.3 µM
97 ± 1 | 1.7 ± 0.2 | CC1Cc2ccccc2N1c1ccnc(N)n1 (stereo not drawn) | IC50 (ROCK2): 1.9 ± 0.4 µM
63 ± 5 | 53.6 ± 4.1 | Nc1nccc(-n2ccc3c(OCCc4ccccc4)cccc32)n1 | IC50 (ROCK2): 17 ± 1.7 µM
63 ± 5 | 30.2 ± 2.5 | COc1cccc(Nc2ccnc(N)n2)c1 | IC50 (ROCK2): 42.5 ± 6.7 µM
17 ± 2 |  | Nc1nccc(-n2ccc3cc(C(=O)Nc4ccccc4)ccc32)n1 | 
70 ± 3 | 10.5 ± 1 | Nc1nccc(-n2ccc3c(C(=O)NCc4ccc(F)cc4)cccc32)n1 | IC50 (ROCK2): 1.1 ± 0.49 µM
 | 0.12 ± 0.02 | CC(NC(=O)c1cccc2c1ccn2-c1ccnc(N)n1)c1ccccc1 (stereo not drawn) [drawing 178] | ROCK1 % inhibition @ 50 μM (ROCK1; 50 μM compound): 105 ± 1%; IC50 (ROCK2): 0.06 ± 0.02 µM
21 ± 10 |  | Nc1nccc(Nc2ccc(S(=O)(=O)Nc3nccs3)cc2)n1 | 
64 ± 7 | 30 ± 3.2 | Nc1nccc(Nc2ccc(OC(F)F)cc2)n1 | IC50 (ROCK2): 23.4 ± 5.5 µM
54 ± 4 | 42.7 ± 0.9 | NS(=O)(=O)c1ccc(Nc2ncnc3nc[nH]c23)cc1 | 
96 ± 1 | 2.8 ± 0.3 | Nc1nccc(-n2ccc3cc(C(=O)NCCc4ccccc4)ccc32)n1 | IC50 (ROCK2): 0.7 ± 0.3 µM
 |  | Nc1nccc(Nc2ccc(S(N)(=O)=O)cc2)n1 [NSC-135784, reference compound] | IC50 (ROCK1; NCI sample, screening hit, weak inhibitor, read-out: IC50 (screen of NCI Diversity set, NCI sample)): 92 µM
 |  | Nc1nccc(Nc2ccc(S(N)(=O)=O)cc2)n1 [1aa, 4-(2-Aminopyrimidin-4-ylamino)benzenesulfonamide hydrochloride] | IC50 (ROCK1; hydrochloride, read-out: ROCK1 IC50): 38 µM; IC50 (ROCK2; hydrochloride): 25 µM
89 ± 4 | 3.7 ± 0.4 | Nc1nccc(N2CCc3ccc(F)cc32)n1 | IC50 (ROCK2): 1.34 ± 0.09 µM
96 ± 3 | 0.4 ± 0.1 | COc1ccc2c(ccn2-c2ccnc(N)n2)c1 | IC50 (ROCK2): 0.25 ± 0.13 µM
0.8 ± 1.2 |  | Cc1cc(Nc2cccc(S(N)(=O)=O)c2)nc(N)n1 | 
42 ± 6 |  | CC(=O)Nc1cccc(Nc2ccnc(N)n2)c1 | 
77 ± 3 | 20.5 ± 8 | COC(=O)c1ccc(Nc2ccnc(N)n2)cc1 | IC50 (ROCK2): 13.9 ± 1.7 µM
90 ± 2 | 6.1 ± 0.6 | Nc1nccc(Nc2cccc(S(N)(=O)=O)c2)n1 | IC50 (ROCK2): 6.1 ± 1.1 µM
87 ± 10 | 1.2 ± 0.1 | CC1Cc2cc(Cl)ccc2N1c1ccnc(N)n1 (stereo not drawn) | IC50 (ROCK2): 0.5 ± 0.03 µM
102.2 ± 0.2 | 3.43 ± 0.44 | C[C@H](NC(=O)c1cccc2c1ccn2-c1ccnc(N)n1)c1ccccc1 | IC50 (ROCK2): 1.2 ± 0.32 µM
92.8 ± 3.64 | 1.62 ± 0.86 | COc1cccc(CNC(=O)c2cccc3c2CCN3c2ccnc(N)n2)c1 | IC50 (ROCK2): 0.25 ± 0.02 µM
18 ± 1 |  | Nc1nccc(N2c3ccccc3CC2c2ccccc2)n1 (stereo not drawn) | 

inhibition at 50 µM (ROCK1) [%] | IC50 (ROCK1; read-out: ROCK1 IC50) [µM] | SMILES | further results
60 ± 2 | 54.1 ± 1.1 | Nc1nccc(-n2ccc3cc(NC(=O)CCc4ccccc4)ccc32)n1 | IC50 (ROCK2): 8.4 ± 2 µM
76 ± 2 | 21 ± 8.8 | CSc1ccc(Nc2ccnc(N)n2)cc1 | IC50 (ROCK2): 17.1 ± 2.8 µM
6 ± 0.4 |  | Nc1nccc(N2c3ccccc3CC2C(=O)O)n1 (stereo not drawn) | 
82 ± 2 | 13.3 ± 1.7 | NC(=O)c1ccc(Nc2ccnc(N)n2)cc1 | IC50 (ROCK2): 11.5 ± 1.2 µM
46 ± 4 | > 100 | Nc1nccc(Nc2ccc(S(=O)(=O)Nc3ccccc3)cc2)n1 | 
-0.3 ± 1 |  | Nc1nccc(Oc2ccc(S(N)(=O)=O)cc2)n1 | 
19.4 ± 13.7 |  | COc1ccc(CNC(=O)c2cccc3c2ccn3-c2ccnc(N)n2)cc1 | 
96 ± 1 | 2.4 ± 1.6 | Nc1nccc(-n2ccc3cc(C(=O)NCc4ccccc4)ccc32)n1 | IC50 (ROCK2): 0.3 ± 0.1 µM
8 ± 3 |  | Nc1nccc(-n2ccc3cc(NC(=O)c4ccccc4)ccc32)n1 | 
38 ± 1 |  | CS(=O)(=O)c1ccc(Nc2ccnc(N)n2)cc1 | 
-5 ± 2 |  | Nc1nccc(-n2ccc3ccc(OCc4ccccc4)cc32)n1 | 
60 ± 3 | 38.5 ± 3.4 | Nc1nccc(Nc2ccc(S(N)(=O)=O)cc2)n1 [drawing 83] | IC50 (ROCK2): 25.5 ± 5.8 µM
-3 ± 1 |  | Clc1nccc(N2CCc3ccccc32)n1 | 
24 ± 2 |  | Nc1nccc(N2CCc3cc([N+](=O)[O-])ccc32)n1 | 
 |  | Nc1nccc(Nc2ccccc2Cl)n1 | inhibition at 100 µM (ROCK1): 39%
 | 3.26 ± 0.57 | CS(=O)(=O)Nc1cccc(CNC(=O)c2cccc3c2ccn3-c2ccnc(N)n2)c1 | inhibition at 100 µM (ROCK1): 100%
85 ± 6 | 1.7 ± 0.5 | CC(NC(=O)c1cccc2c1ccn2-c1ccnc(N)n1)c1ccccc1 (stereo not drawn) [drawing 177] | IC50 (ROCK2): 0.21 ± 0.15 µM
 | 1.39 ± 0.26 | CC(=O)Nc1cccc(CNC(=O)c2cccc3c2ccn3-c2ccnc(N)n2)c1 | inhibition at 100 µM (ROCK1): 117%
 | 9.31 ± 8.68 | COCCOc1cccc(CNC(=O)c2cccc3c2ccn3-c2ccnc(N)n2)c1 | inhibition at 100 µM (ROCK1): 86%
 | 15.4 ± 4.02 | COc1cccc(CNC(=O)c2cccc3c2ccn3-c2ccnc(NC(C)=O)n2)c1 | inhibition at 100 µM (ROCK1): 80%
86 ± 5 | 4.9 ± 0.5 | Nc1nccc(-n2ccc3ccc(F)cc32)n1 | IC50 (ROCK2): 1.7 ± 0.1 µM
-0.3 ± 0.7 |  | Nc1nccc(Nc2ccc(S(=O)(=O)N3CCN(c4cccc(C(F)(F)F)c4)CC3)cc2)n1 | 
50 ± 1 | 38.7 ± 1.6 | Nc1nccc(-n2cnc3ccccc32)n1 | IC50 (ROCK2): 37.4 ± 4 µM

inhibition at 50 µM (ROCK1) [%] | IC50 (ROCK1; read-out: ROCK1 IC50) [µM] | SMILES | further results
6 ± 1 |  | Nc1nccc(N2CCc3ccccc3C2)n1 | 
88 ± 0.3 | 1.2 ± 0.2 | Nc1nccc(-n2ccc3ccc(Cl)cc32)n1 | IC50 (ROCK2): 1 ± 0.3 µM
 | 1.77 ± 0.24 | CC[C@@H](NC(=O)c1cccc2c1ccn2-c1ccnc(N)n1)c1ccccc1 | inhibition at 100 µM (ROCK1): 122%
89 ± 2 | 3.9 ± 0.3 | Nc1nccc(Nc2ccc([N+](=O)[O-])cc2)n1 | IC50 (ROCK2): 3.7 ± 0.8 µM
2 ± 1 |  | NC(=O)c1ccc(Oc2ccnc(N)n2)cc1 | 
90 ± 1 | 6.7 ± 1.3 | CS(=O)(=O)c1cccc(Nc2ccnc(N)n2)c1 | IC50 (ROCK2): 7.3 ± 2 µM
10 ± 12 |  | CC(=O)N1CCc2ccc(Nc3ccnc(N)n3)cc21 | 
31 ± 10 |  | Nc1nccc(-n2ccc3c(C(=O)NCc4ccc(Cl)cc4)cccc32)n1 | 
 | 15.2 ± 3.74 | COc1cccc(CN(C)C(=O)c2cccc3c2ccn3-c2ccnc(N)n2)c1 | inhibition at 100 µM (ROCK1): 89%
86 ± 4 | 6.8 ± 3 | Nc1nccc(-n2ccc3c(C(=O)NCc4cccc(Cl)c4)cccc32)n1 | IC50 (ROCK2): 0.72 ± 0.13 µM
 | 5.71 ± 1.44 | Nc1nccc(Nc2cccc(Cl)c2)n1 | inhibition at 100 µM (ROCK1): 89%
36 ± 6 |  | CCc1ccc(Nc2ccnc(N)n2)cc1 | 
2.8 ± 2.3 |  | Nc1nccc(Nc2ccc(S(=O)(=O)Nc3ccccn3)cc2)n1 | 
22 ± 4 |  | Nc1nccc(Nc2ccccc2OCc2ccccc2)n1 | 
 | 33.4 ± 8.52 | COc1cccc(CNS(=O)(=O)c2cccc(Nc3ccnc(N)n3)c2)c1 | inhibition at 100 µM (ROCK1): 70%
 | 8.31 ± 7.39 | Nc1nccc(-n2ccc3c(C(=O)NCc4cccc(N5CCCC5=O)c4)cccc32)n1 | inhibition at 100 µM (ROCK1): 99%
 |  | Nc1nccc(-n2ccc3c(C(=O)NCc4ccccc4-c4ccccc4)cccc32)n1 | inhibition at 100 µM (ROCK1): 7%
 | 15.4 ± 6.04 | COC[C@H](NC(=O)c1cccc2c1ccn2-c1ccnc(N)n1)c1ccccc1 | inhibition at 100 µM (ROCK1): 91%
9 ± 1.5 |  | CC(=O)NS(=O)(=O)c1ccc(Nc2ccnc(N)n2)cc1 | 
-1 ± 2 |  | c1ccc(Nc2nccc(N3CCc4ccccc43)n2)cc1 | 
21 ± 14 |  | Nc1nccc(-n2ccc3cc(OCCc4ccccc4)ccc32)n1 | 
 | 1.38 ± 0.63 | COc1cccc([C@H](C)NC(=O)c2cccc3c2ccn3-c2ccnc(N)n2)c1 | inhibition at 100 µM (ROCK1): 97%
-0.5 ± 1 |  | Nc1nccc(Oc2ccccc2)n1 | 

inhibition at 50 µM (ROCK1) [%] | IC50 (ROCK1; read-out: ROCK1 IC50) [µM] | SMILES | further results
10 ± 2 |  | Nc1nccc(-n2ccc3c(OCc4cccc(Cl)c4F)cccc32)n1 | 
31 ± 4 |  | CCOc1ccc(Nc2ccnc(N)n2)cc1 | 
33 ± 4 |  | c1ccc(COc2cccc3c2CCN3c2ncnc3[nH]ccc23)cc1 | 
39.2 ± 4.19 |  | Nc1nccc(-n2ccc3c(C(=O)NCc4ccccc4Cl)cccc32)n1 | 
9 ± 2 |  | Nc1nc(Nc2ccc(S(N)(=O)=O)cc2)c2[nH]cnc2n1 | 
36 ± 5 |  | Nc1nccc(Nc2cc(S(N)(=O)=O)ccc2O)n1 | 
1.8 ± 0.8 |  | Nc1nccc(Nc2ccc(S(=O)(=O)Nc3ccnn3-c3ccccc3)cc2)n1 | 
1.26 ± 0.79 |  | COc1cccc(CNC(=O)c2cccc3c2ccn3-c2cc(N)nc(N)n2)c1 | 
 | 9.76 ± 0.86 | CC[C@H](NC(=O)c1cccc2c1ccn2-c1ccnc(N)n1)c1ccccc1 | inhibition at 100 µM (ROCK1): 88%
2 ± 1 |  | COc1cc(NC(C)=O)ccc1Nc1ccnc(N)n1 | 
 | 13 ± 6.81 | COc1cccc(CC(=O)Nc2cccc3c2ccn3-c2ccnc(N)n2)c1 | inhibition at 100 µM (ROCK1): 62%
 | 7.3 ± 1.29 | COc1cccc(CNC(=O)c2cccc(Nc3ccnc(N)n3)c2)c1 | inhibition at 100 µM (ROCK1): 97%
2.1 ± 1.9 |  | Nc1nccc(Nc2ccc(S(=O)(=O)NC(=O)c3ccccc3)cc2)n1 | 
9 ± 1 |  | Nc1nccc(-n2ccc3c(C(=O)Nc4ccccc4)cccc32)n1 | 
2 ± 1 |  | Nc1nccc(Nc2ccc(CC(=O)O)cc2)n1 | 
-5 ± 0.5 |  | Nc1nccc(-n2ccc3cccc(OCc4ccccc4)c32)n1 | 
 | 40.3 ± 11 | CC(=O)N(C)c1cccc(CNC(=O)c2cccc3c2ccn3-c2ccnc(N)n2)c1 | inhibition at 100 µM (ROCK1): 47%
 | 3.37 ± 0.53 | CCOc1cccc(CNC(=O)c2cccc3c2ccn3-c2ccnc(N)n2)c1 | inhibition at 100 µM (ROCK1): 61%
23 ± 1 |  | Nc1nccc(Nc2ccc3cc[nH]c3c2)n1 | 
30 ± 1 |  | Nc1nccc(Nc2ccc(S(=O)(=O)NCc3ccccc3)cc2)n1 | 
 | 0.213 ± 0.025 | COc1cccc([C@@H](C)NC(=O)c2cccc3c2ccn3-c2ccnc(N)n2)c1 | inhibition at 100 µM (ROCK1): 92%
37 ± 1 |  | Nc1nccc(Nc2ccc3[nH]ccc3c2)n1 | 

From US9616064B2, “Rho kinase inhibitors and methods of use” (H. LEE MOFFITT CANCER CENTER AND RESEARCH INSTITUTE, INC., priority 2011, dated 2017)
